US4777269A, “7-Phenylacetic acid-4-alkyl-coumarinyl amides useful in fluorometric determination of the activity of hydrolases” (European Atomic Energy Community, priority 1986, dated 1988)
In brackets after ≈: the same amount, converted by molar mass. Where two headings read alike, the source gives them in different places.

Assays:
[1] = Solubility of the substrates in aqueous solution / buffer; type: physicochemical
Method: The values for the PFC test are easily reproduceable since the solution of the substrate (5% ethanol) can be prepared more accurately. For the preparation of solutions of the substrate without ethanol about 24 hours are need to dissolve 1 mg of the substrate in 1 l of the buffer. The fluorometric test is particularly suited for the determination of low activities of penicillin G-acylase.
The yields obtained in the preparation of the 7-phenylacetic acid-4-alkyl-coumarinyl amides of the invention, in particular of PFC and PMC, were in the range of from 50 to 80% at a high product purity (NMR, IR). […] However, this problem may be overcome by dissolving the substrate at first in pure ethanol and then diluting it with the corresponding buffer to a mixture with 5% ethanol. In this manner concentrations of 6 mg/l can be achieved.

penicillin G-acylase = penicillin G-acylase (Escherichia coli, UniProt P06875); experiment: Kinetic study of enzymatic cleavage of the coumarinyl amides (Lineweafer-Burg-plot), fluorometric test; type: biochemical; settings: enzyme concentration constant, substrate concentration varied, 50 mM K-P-buffer, 5% ethanol
penicillin G-acylase, sequence (P06875 290-846): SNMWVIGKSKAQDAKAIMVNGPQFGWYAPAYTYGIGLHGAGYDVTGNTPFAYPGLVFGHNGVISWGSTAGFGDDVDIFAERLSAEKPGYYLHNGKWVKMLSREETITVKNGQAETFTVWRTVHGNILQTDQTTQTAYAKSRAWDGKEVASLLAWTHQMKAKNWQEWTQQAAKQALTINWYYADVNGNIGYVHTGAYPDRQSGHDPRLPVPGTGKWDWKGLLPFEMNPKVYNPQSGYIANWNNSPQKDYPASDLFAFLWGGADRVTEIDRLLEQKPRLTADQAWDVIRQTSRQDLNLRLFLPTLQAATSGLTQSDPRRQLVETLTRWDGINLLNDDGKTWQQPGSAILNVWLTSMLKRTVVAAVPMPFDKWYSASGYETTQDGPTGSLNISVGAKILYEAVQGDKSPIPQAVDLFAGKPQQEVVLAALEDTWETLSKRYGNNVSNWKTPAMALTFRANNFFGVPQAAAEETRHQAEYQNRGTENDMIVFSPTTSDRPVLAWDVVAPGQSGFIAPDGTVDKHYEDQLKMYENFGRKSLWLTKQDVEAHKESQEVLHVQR
penicillin G-acylase, sequence (P06875 27-235): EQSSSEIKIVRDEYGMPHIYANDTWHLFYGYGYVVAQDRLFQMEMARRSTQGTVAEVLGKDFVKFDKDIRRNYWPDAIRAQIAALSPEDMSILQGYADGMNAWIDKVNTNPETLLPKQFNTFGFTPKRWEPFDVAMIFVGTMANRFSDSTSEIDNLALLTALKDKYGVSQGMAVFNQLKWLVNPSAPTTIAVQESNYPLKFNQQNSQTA
Method: During the tests it has been observed repeatedly that the conversion rate of the reaction decreases at higher substrate concentrations. Therefore, research work for the determination of the kinetic parameters (Vmax and KM) of this reaction system had to be carried out.
The enzyme concentration in the test was kept constant and the substrate concentration (50 mM K-P-buffer 5% ethanol for both substrates) was varied.
The test mixture contains 3 μg/ml of the coumarinyl derivative as obtained in example 1, dissolved in 50 mM of a potassium-phosphate-buffer (pH 8, 5% ethanol).
At first a solution of the coumarinyl derivative in ethanol is prepared and diluted with the phosphate buffer according to the concentration values. 3 ml of the mixture are measured in a fluorescence cuvette in a spectral fluorometer (λ=440 nm for PMC; λ=495 nm for PFC) in regard to the background signal.
The reaction is started (while stirring) by the addition of 10 to 100 μl of the sample and followed. The activity of the enzyme can be estimated from the linear initial increase of the fluorescence/time-diagram after a corresponding calibration has been made.

[2] = aqueous solution, aqueous solutions, without ethanol, read-out: solubility in aqueous solutions
[3] = buffer with 5% ethanol, organic solvent or mixture, buffer mixture with 5% ethanol, read-out: achievable concentration after dissolving in pure ethanol and diluting with buffer

O=C(Cc1ccccc1)Nc1ccc2c(C(F)(F)F)cc(=O)oc2c1 [PFC, 7-phenyl-acetic acid-4-trifluoromethyl-coumarinyl amide]
solubility [1, 2]: < 1 µg/mL | solubility [1, 3]: 6 µg/mL (≈ 17.3 µM) | kinetic behaviour at higher substrate concentrations (penicillin G-acylase): substrate inhibition

Cc1cc(=O)oc2cc(NC(=O)Cc3ccccc3)ccc12 [PMC, 7-phenylacetic acid-4-methylcoumarinyl amide]
solubility [1, 2]: < 1 µg/mL | solubility [1, 3]: 6 µg/mL (≈ 20.5 µM) | kinetic behaviour at higher substrate concentrations (penicillin G-acylase): substrate inhibition
